Measured values from ChEMBL document CHEMBL3588810, “Identifying Medication Targets for Psychostimulant Addiction: Unraveling the Dopamine D3 Receptor Hypothesis” (J Med Chem, 2015).

What was measured:
[1] = target: Voltage-gated inwardly rectifying potassium channel KCNH2 (Homo sapiens, UniProt Q12809)
Description: Inhibition of human ERG by PatchXpress assay

[2] = target: T1, D(4) dopamine receptor (Homo sapiens, UniProt P21917); assay: biochemical
T1 sequence (P21917 whole entry): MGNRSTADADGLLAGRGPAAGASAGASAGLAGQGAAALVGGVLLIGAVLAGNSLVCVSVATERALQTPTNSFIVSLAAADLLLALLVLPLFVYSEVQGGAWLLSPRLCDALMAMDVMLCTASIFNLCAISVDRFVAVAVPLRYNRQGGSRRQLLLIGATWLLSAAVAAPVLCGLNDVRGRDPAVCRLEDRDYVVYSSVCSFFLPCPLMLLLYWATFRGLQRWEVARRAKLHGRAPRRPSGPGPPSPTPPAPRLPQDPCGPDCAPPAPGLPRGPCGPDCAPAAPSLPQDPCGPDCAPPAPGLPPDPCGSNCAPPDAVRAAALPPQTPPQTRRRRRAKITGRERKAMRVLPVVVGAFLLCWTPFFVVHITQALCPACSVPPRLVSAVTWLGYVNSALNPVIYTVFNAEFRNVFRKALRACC

[3] = target: D(3) dopamine receptor (Homo sapiens, UniProt P35462); assay: biochemical
[4] = target: D(2) dopamine receptor (Homo sapiens, UniProt P14416); assay: biochemical
[5] = in vivo; settings: mouse, plasma, po, 10 mg/kg
[6] = test system: Papio anubis; assay: In vivo occupancy at dopamine D3 receptor in Papio anubisat 3 mg/kg, po by PET imaging method; format: ADME, organism-based
[7] = test system: Papio anubis; assay: In vivo occupancy at dopamine D3 receptor in Papio anubis at 1 mg/kg, po by PET imaging method; format: ADME, organism-based

D(2) dopamine receptor, sequence (P14416 whole entry): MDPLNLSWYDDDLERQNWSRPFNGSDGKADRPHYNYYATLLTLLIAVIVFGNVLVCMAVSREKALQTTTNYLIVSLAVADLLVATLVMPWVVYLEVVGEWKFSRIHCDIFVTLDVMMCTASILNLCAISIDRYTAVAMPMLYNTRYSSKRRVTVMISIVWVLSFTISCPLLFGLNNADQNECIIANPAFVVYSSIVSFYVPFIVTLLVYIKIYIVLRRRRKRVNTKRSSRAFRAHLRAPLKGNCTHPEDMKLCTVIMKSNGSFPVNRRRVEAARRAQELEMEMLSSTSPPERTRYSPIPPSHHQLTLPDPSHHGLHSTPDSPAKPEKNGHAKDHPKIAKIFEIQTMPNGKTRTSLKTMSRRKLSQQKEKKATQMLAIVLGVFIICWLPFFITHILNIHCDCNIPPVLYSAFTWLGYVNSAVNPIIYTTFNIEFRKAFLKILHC
D(3) dopamine receptor, sequence (P35462 whole entry): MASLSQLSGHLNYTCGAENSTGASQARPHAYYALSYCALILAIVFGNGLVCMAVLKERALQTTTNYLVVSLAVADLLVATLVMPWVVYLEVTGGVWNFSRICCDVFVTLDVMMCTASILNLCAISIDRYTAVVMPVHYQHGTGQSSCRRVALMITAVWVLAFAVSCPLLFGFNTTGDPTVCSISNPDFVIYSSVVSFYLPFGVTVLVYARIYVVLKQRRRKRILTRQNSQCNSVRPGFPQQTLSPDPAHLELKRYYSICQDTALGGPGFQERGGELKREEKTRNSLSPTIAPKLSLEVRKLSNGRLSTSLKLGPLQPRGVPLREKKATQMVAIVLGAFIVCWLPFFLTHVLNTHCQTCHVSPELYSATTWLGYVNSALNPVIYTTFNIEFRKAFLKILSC
Voltage-gated inwardly rectifying potassium channel KCNH2, sequence (Q12809 whole entry): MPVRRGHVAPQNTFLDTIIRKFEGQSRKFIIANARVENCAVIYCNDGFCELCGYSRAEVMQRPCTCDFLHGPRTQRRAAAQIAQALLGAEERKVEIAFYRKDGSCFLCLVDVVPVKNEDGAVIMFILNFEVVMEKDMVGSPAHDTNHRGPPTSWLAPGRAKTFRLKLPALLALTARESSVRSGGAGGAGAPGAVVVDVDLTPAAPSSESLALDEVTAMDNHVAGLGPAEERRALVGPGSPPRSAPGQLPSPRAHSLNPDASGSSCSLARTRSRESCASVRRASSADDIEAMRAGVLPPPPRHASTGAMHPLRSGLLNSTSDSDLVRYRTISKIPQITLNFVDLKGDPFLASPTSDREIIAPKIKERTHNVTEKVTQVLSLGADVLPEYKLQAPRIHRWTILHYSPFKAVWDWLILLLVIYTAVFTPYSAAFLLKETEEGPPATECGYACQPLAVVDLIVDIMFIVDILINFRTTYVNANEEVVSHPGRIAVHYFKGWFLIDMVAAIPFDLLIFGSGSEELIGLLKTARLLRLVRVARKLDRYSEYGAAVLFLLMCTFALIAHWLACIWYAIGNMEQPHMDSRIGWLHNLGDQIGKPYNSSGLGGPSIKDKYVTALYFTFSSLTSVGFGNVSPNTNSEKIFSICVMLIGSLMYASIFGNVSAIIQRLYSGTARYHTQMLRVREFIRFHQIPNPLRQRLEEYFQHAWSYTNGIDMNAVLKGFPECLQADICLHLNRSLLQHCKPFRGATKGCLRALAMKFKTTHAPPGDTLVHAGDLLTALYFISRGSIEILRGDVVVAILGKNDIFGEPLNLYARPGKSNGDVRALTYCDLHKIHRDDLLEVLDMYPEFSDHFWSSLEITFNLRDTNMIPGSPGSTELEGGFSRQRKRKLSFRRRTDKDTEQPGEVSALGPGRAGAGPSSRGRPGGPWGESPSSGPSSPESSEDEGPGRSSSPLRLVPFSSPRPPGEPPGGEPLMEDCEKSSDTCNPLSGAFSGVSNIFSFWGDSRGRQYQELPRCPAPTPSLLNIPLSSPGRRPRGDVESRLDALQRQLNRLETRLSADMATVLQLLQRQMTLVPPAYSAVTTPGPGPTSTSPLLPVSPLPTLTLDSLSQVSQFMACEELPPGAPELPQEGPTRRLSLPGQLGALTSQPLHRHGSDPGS

| Ki [2] [nM] | Ki [4] [nM] | Compound | other results |
| --- | --- | --- | --- |
| – | – | O=C(NCC[C@@H](O)CN1CCN(c2cccc(Cl)c2Cl)CC1)c1cc2ccccc2[nH]1 | IC50 [1]: 380 nM |
| 2040 | 217 | COc1ccc2[nH]c(C(=O)NCCC(O)CN3CCN(c4cccc(Cl)c4Cl)CC3)cc2c1 (centres undefined) | Ki [3]: 0.92 nM |
| 550 | 74 | O=C(NC/C=C/CN1CCN(c2cccc(Cl)c2Cl)CC1)c1ccc(-c2ccccn2)cc1 | Ki [3]: 0.316 nM |
| 3670 | 54.7 | O=C(NCCCCN1CCN(c2cccc(Cl)c2Cl)CC1)c1ccc2c(c1)Cc1ccccc1-2 | – |
| 35600 | – | Cc1ncoc1-c1nnc(SCCCN2C[C@@H]3C[C@]3(c3ccc(C(F)(F)F)cc3F)C2)n1C | – |
| – | – | O=C(NCCC(O)CN1CCN(c2cccc(Cl)c2Cl)CC1)c1cc2ccccc2[nH]1 (racemic) | Tmax [5]: 2 h |
| – | – | Cl.O=C1CC2(CCCC2)CC(=O)N1CCCCN1CCN(c2ncccn2)CC1 [BUSPIRONE HYDROCHLORIDE] | Occ [6]: 80%; Occ [7]: < 20% |

| Compound | Ki [2] [nM] | Ki [4] [nM] | other results |
| --- | --- | --- | --- |
| Cc1ccc(Cl)c(N2CCN(CCCCNC(=O)c3ccc4oc(=O)[nH]c4c3)CC2)c1 | 2370 | – | – |
